Data: patent publication US20140120087A1, “TRIAZOLOPYRIDINES” (BAYER INTELLECTUAL PROPERTY GMBH, priority 2011, published 2014)

Tests used:
Mps-1 kinase [1] = biological target: T1, Mps-1 kinase (Homo sapiens, UniProt P33981); assay: Mps-1 kinase assay with 2 mM ATP (TR-FRET)
T1 sequence (P33981 1-857): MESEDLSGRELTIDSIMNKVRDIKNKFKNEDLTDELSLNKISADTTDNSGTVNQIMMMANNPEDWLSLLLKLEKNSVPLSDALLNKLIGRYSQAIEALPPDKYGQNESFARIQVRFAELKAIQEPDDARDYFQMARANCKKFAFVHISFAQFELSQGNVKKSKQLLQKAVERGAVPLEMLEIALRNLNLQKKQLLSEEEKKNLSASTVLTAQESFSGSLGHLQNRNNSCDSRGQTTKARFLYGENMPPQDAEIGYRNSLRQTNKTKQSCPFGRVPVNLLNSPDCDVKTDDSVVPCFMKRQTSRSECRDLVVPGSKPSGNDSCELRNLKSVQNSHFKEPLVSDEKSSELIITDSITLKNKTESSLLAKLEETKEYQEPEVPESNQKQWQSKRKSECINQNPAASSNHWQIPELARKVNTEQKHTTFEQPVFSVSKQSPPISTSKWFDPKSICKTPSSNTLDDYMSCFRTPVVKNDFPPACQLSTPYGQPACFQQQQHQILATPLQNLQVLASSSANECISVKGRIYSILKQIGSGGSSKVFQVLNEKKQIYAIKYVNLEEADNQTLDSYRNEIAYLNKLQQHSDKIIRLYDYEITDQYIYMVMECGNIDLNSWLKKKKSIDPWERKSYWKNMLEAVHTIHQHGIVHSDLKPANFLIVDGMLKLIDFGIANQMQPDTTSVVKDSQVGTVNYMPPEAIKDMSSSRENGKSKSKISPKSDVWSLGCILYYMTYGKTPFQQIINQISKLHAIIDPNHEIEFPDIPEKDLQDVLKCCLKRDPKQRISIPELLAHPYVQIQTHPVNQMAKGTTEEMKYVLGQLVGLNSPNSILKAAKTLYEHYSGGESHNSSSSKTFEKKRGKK

Mps-1 kinase [2] = biological target: T1, Mps-1 kinase; assay: Mps-1 kinase assay with 10 μM ATP (TR-FRET)

Row | Compound | IC50 (Mps-1 kinase [1]) | IC50 (Mps-1 kinase [2])
1 | Cc1cc([S@@+](C)[O-])ccc1Nc1nc2ccc(-c3ccc(NC(=O)Cc4ccc(F)cc4)cc3)cn2n1 (stereo in doubt) [Example 12.33, 2-(4-fluorophenyl)-N-[4-(2-{[2-methyl-4-(methyl-sulfinyl)phenyl]amino}-[1,2,4]triazolo[1,5-a]pyridin-6-yl)phenyl]acetamide] | 1.4 nM | ≤ 1 nM
2 | Cc1cc(C(N)=O)ccc1Nc1nc2ccc(-c3ccc(NC(=O)Cc4ccc(F)cc4)cc3)cn2n1 [Example 12.28, 4-{[6-(4-{[(4-fluorophenyl)-acetyl]amino}phenyl)[1,2,4]triazolo[1,5-a]pyridin-2-yl]amino}-3-methyl-benzamide] | ≤ 1 nM | ≤ 1 nM
3 | COc1cc([S@@+](C)[O-])ccc1Nc1nc2ccc(-c3ccc(C(=O)NCc4ccc(F)cc4)cc3)cn2n1 (stereo in doubt) [Example 12.51, N-(4-fluorobenzyl)-4-(2-{[2-methoxy-4-(methylsulfinyl)-phenyl]amino}[1,2,4]-triazolo[1,5-a]pyridin-6-yl)-benzamide] | 2.6 nM | ≤ 1 nM
4 | Cc1ccc(CNC(=O)c2ccc(-c3ccc4nc(Nc5ccc([S@@+](C)[O-])cc5C)nn4c3)cc2)cc1 (stereo in doubt) [Example 12.78, N-(4-methylbenzyl)-4-(2-{[2-methyl-4-(methylsulfinyl)-phenyl]amino}[1,2,4]triazolo [1,5-a]pyridin-6-yl)-benzamide] | 7.6 nM | ≤ 1 nM
5 | COc1cc(S(C)(=O)=O)ccc1Nc1nc2ccc(-c3ccc(NC(=O)Cc4ccc(F)cc4F)cc3)cn2n1 [Example 10.01] | 17 nM | ≤ 1 nM
6 | Cc1cc(NS(C)(=O)=O)ccc1Nc1nc2ccc(-c3ccc(NC(=O)Cc4ccc(F)cc4)cc3)cn2n1 [Example 12.34, 2-(4-fluorophenyl)-N-{4-[2-({2-methyl-4-[(methyl-sulfonyl)amino]phenyl}-amino)[1,2,4]triazolo[1,5-a]pyridin-6-yl]phenyl}-acetamide] | 6.6 nM | ≤ 1 nM
7 | COc1cc(C(=O)N(C)CCN(C)C)ccc1Nc1nc2ccc(-c3ccc(NC(=O)Cc4ccc(F)cc4)cc3)cn2n1 [Example 12.08, N-[2-(dimethylamino)ethyl]-4-{[6-(4-{[(4-fluorophenyl)-acetyl]amino}phenyl)[1,2,4]triazolo[1,5-a]pyridin-2-yl]amino}-3-methoxy-N-methylbenzamide] | ≤ 1 nM | ≤ 1 nM
8 | CS(=O)(=O)c1ccc(Nc2nc3ccc(-c4ccc(C(=O)NCc5ccc(F)cc5)cc4)cn3n2)c(OC(F)F)c1 [Example 02.28, 4-(2-{[2-(difluoromethoxy)-4-(methylsulfonyl)phenyl]amino}[1,2,4]triazolo-[1,5-α]pyridin-6-yl)-N-(4-fluorobenzyl)benzamide] | 3.5 nM | ≤ 1 nM
9 | CCN(Cc1ccc(Nc2nc3ccc(-c4ccc(NC(=O)Cc5ccc(F)cc5)cc4)cn3n2)c(OC)c1)C(C)(C)CO [Example 12.16, N-(4-{2-[(4-{[ethyl(1-hydroxy-2-methylpropan-2-yl)amino]methyl}-2-methoxyphenyl)amino]-[1,2,4]triazolo[1,5-a]pyridin-6-yl}phenyl)-2-(4-fluorophenyl)acetamide] | ≤ 1 nM | ≤ 1 nM
10 | CCOc1cc(S(=O)(=O)CC)ccc1Nc1nc2ccc(-c3ccc(NC(=O)Cc4ccc(F)cc4)cc3)cn2n1 [Example 01.33, N-[4-(2-{[2-ethoxy-4-(ethylsulfonyl)phenyl]amino}[1,2,4]triazolo[1,5-α]-pyridin-6-yl)phenyl]-2-(4-fluorophenyl)acetamide] | 1.3 nM | ≤ 1 nM
11 | CCN(C)C(=O)c1ccc(Nc2nc3ccc(-c4ccc(NC(=O)Cc5ccc(F)cc5)cc4)cn3n2)c(OC)c1 [Example 12.06, N-ethyl-4-{[6-(4-{[(4-fluorophenyl)acetyl]amino}-phenyl)[1,2,4]triazolo[1,5-a]pyridin-2-yl]amino}-3-methoxy-N-methyl-benzamide] | ≤ 1 nM | ≤ 1 nM
12 | COc1cc(C(=O)NCCCF)ccc1Nc1nc2ccc(-c3ccc(C(=O)NCc4ccc(F)cc4)cc3)cn2n1 [Example 12.50, 4-[(6-{4-[(4-fluorobenzyl)-carbamoyl]phenyl}[1,2,4]triazolo [1,5-a]pyridin-2-yl)-amino]-N-(3-fluoropropyl)-3-methoxybenzamide] | 3.1 nM | ≤ 1 nM
13 | Cc1cc([S@@+](C)[O-])ccc1Nc1nc2ccc(-c3ccc(C(=O)NCc4ccc(F)cc4)cc3)cn2n1 (stereo in doubt) [Example 12.69, N-(4-fluorobenzyl)-4-(2-{[2-methyl-4-(methylsulfinyl)-phenyl]amino}[1,2,4]triazolo [1,5-a]pyridin-6-yl)-benzamide] | 4.5 nM | ≤ 1 nM
14 | COc1cc(S(=O)(=O)NC(C)(C)C)ccc1Nc1nc2ccc(-c3ccc(C(=O)NCc4ccc(F)cc4)cc3)cn2n1 [Example 12.52, 4-(2-{[4-(tert-butyl-sulfamoyl)-2-methoxy-phenyl]amino}[1,2,4]-triazolo[1,5-a]pyridin-6-yl)-N-(4-fluorobenzyl)-benzamide] | 14 nM | ≤ 1 nM

Next, values leading:

Row | IC50 (Mps-1 kinase [1]) | IC50 (Mps-1 kinase [2]) | Compound
15 | 16 nM | ≤ 1 nM | CS(=O)(=O)c1ccc(Nc2nc3ccc(-c4ccc(NC(=O)Cc5ccc(F)cc5)cc4)cn3n2)c(F)c1 [Example 12.39, N-[4-(2-{[2-fluoro-4-(methylsulfonyl)phenyl]-amino}[1,2,4]triazolo[1,5-a]pyridin-6-yl)phenyl]-2-(4-fluorophenyl)acetamide]
16 | 1.6 nM | ≤ 1 nM | COCCNC(=O)c1ccc(Nc2nc3ccc(-c4ccc(C(=O)NCc5ccc(F)cc5)cc4)cn3n2)c(OC)c1 [Example 12.44, 4-[(6-{4-[(4-fluorobenzyl)-carbamoyl]phenyl}[1,2,4]triazolo [1,5-a]pyridin-2-yl)-amino]-3-methoxy-N-(2-methoxyethyl)benzamide]
17 | ≤ 1 nM | ≤ 1 nM | CCOc1cc(C(=O)NCCN(C)C)ccc1Nc1nc2ccc(-c3ccc(NC(=O)Cc4ccc(F)cc4)cc3)cn2n1 [Example 12.20, N-[2-(dimethylamino)ethyl]-3-ethoxy-4-{[6-(4-{[(4-fluorophenyl)acetyl]amino}-phenyl)[1,2,4]triazolo[1,5-a]pyridin-2-yl]amino}-benzamide]
18 | ≤ 1 nM | ≤ 1 nM | CS(=O)(=O)c1ccc(Nc2nc3ccc(-c4ccc(NC(=O)Cc5ccc(F)cc5)cc4)cn3n2)c(OCC(F)(F)F)c1 [Example 01.34, 2-(4-fluorophenyl)-N-[4-(2-{[4-(methylsulfonyl)-2-(2,2,2-trifluoroethoxy)-phenyl]amino}[1,2,4]triazolo[1,5-α]pyridin-6-yl)phenyl]acetamide]
19 | 1.2 nM | ≤ 1 nM | CC(C)S(=O)(=O)c1ccc(Nc2nc3ccc(-c4ccc(NC(=O)Cc5ccc(F)cc5)cc4)cn3n2)c(OC(F)F)c1 [Example 12.26, N-[4-(2-{[2-(difluoro-methoxy)-4-(propan-2-ylsulfonyl)phenyl]amino}-[1,2,4]triazolo[1,5-a]pyridin-6-yl)phenyl]-2-(4-fluorophenyl)acetamide]
20 | 1.1 nM | ≤ 1 nM | COc1cc(C(C)(C)O)ccc1Nc1nc2ccc(-c3ccc(C(=O)NCc4ccc(F)cc4)cc3)cn2n1 [Example 12.54, N-(4-fluorobenzyl)-4-(2-{[4-(2-hydroxypropan-2-yl)-2-methoxyphenyl]amino}-[1,2,4]triazolo[1,5-a]pyridin-6-yl)benzamide]
21 | ≤ 1 nM | ≤ 1 nM | CCOc1cc(C(=O)N(C)CC)ccc1Nc1nc2ccc(-c3ccc(C(=O)NCc4ccc(F)cc4)cc3)cn2n1 [Example 12.56, 3-ethoxy-N-ethyl-4-[(6-{4-[(4-fluorobenzyl)carbamoyl]phenyl}[1,2,4]triazolo[1,5-a]pyridin-2-yl)amino]-N-methylbenzamide]
22 | ≤ 1 nM | ≤ 1 nM | CCOc1cc(C(=O)NCCF)ccc1Nc1nc2ccc(-c3ccc(C(=O)NCc4ccc(F)cc4)cc3)cn2n1 [Example 12.57, 3-ethoxy-4-[(6-{4-[(4-fluoro-benzyl)carbamoyl]phenyl}-[1,2,4]triazolo[1,5-a]pyridin 2-yl)amino]-N-(2-fluoroethyl)benzamide]
23 | 2.2 nM | ≤ 1 nM | Cc1cc(S(C)(=O)=O)ccc1Nc1nc2ccc(-c3ccc(NC(=O)Cc4ccc(F)cc4)cc3)cn2n1 [Example 12.32, 2-(4-fluorophenyl)-N-[4-(2-{[2-methyl-4-(methyl-sulfonyl)phenyl]amino}-[1,2,4]triazolo[1,5-a]pyridin-6-yl)phenyl]acetamide]
24 | 5.1 nM | ≤ 1 nM | Cc1cc([S@@+](C)[O-])ccc1Nc1nc2ccc(-c3ccc(C(=O)NCc4ccc(Cl)cc4)cc3)cn2n1 (stereo in doubt) [Example 12.75, N-(4-chlorobenzyl)-4-(2-{[2-methyl-4-(methylsulfinyl)-phenyl]amino}[1,2,4]triazolo [1,5-a]pyridin-6-yl)-benzamide]
